Laboratory results from patent US11352322B2, “Cyclopropyl-amide compounds as dual LSD1/HDAC inhibitors” (Jubilant Epicore LLC, priority 2016, dated 2022).
Structures can show the parent of a compound that is named as a salt.

Experiments:
[1] = target: HDAC6 human recombinant enzyme (Homo sapiens (Human), UniProt Q9UBN7); experiment: Histone Deacetylase Assay (BPS Biosciences), HDAC6; assay type: biochemical
Description: Histone Deacetylase Assay (BPS Biosciences)
Histone deacetylase assay was done as per manufacturer's instructions.

[2] = Metabolic stability in liver microsomes, HLM; conditions: 1 μM, NADPH
Description: (§1) The microsomal suspension was prepared by adding liver microsomes to 100 mM potassium phosphate buffer (pH7.4) to give a final protein concentration of 0.5 mg/mL. The stock solution of NCE (10 mM in DMSO) was added to the microsomes to provide a final concentration of 1 μM. […] Samples were vortexed and centrifuged at 5,000 rpm for 10 min to remove proteins. Supernatant were analyzed on LC-MS/MS.

[3] = test system: MM1S; experiment: Anticancer activity: Alamar Blue assay, MM1S; assay type: cell-based; conditions: Homo sapiens, MM1.S, read-out: MM1S EC50
[4] = Metabolic stability in liver microsomes, MLM; conditions: 1 μM, NADPH
Description: as §1

Sequence of HDAC6 human recombinant enzyme (Q9UBN7 whole entry): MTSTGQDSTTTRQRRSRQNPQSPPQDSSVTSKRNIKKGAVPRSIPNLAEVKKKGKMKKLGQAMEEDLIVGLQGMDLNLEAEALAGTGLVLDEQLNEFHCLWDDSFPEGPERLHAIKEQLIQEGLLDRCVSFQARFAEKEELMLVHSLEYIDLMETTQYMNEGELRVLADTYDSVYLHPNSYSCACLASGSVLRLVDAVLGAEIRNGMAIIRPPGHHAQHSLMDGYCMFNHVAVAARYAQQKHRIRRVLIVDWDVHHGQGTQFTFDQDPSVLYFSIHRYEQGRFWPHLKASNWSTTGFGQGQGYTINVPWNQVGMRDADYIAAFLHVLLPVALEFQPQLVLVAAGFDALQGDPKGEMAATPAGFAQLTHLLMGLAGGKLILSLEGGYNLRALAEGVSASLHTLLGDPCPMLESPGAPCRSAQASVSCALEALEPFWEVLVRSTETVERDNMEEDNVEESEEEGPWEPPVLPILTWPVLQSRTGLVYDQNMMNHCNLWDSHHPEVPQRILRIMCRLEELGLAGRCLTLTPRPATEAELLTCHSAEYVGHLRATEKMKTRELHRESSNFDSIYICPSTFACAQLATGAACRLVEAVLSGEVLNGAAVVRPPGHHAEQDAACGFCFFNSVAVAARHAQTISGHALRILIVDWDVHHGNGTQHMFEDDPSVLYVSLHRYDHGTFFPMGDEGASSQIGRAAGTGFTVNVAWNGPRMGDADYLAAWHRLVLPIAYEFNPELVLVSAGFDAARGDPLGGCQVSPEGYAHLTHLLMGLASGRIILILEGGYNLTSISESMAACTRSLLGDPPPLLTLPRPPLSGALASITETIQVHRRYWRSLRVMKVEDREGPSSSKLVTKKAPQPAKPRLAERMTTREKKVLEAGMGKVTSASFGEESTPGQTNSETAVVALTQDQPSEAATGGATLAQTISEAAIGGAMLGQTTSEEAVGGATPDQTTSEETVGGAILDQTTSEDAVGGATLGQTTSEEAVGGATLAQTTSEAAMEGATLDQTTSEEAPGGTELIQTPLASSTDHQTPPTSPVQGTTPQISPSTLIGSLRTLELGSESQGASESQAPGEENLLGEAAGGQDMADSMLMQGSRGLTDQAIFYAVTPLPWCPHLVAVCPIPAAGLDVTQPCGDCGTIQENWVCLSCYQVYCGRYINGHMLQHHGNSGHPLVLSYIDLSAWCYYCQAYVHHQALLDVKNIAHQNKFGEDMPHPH

Compound	IC50 [1]	Metabolic stability HLM % remaining in 30 min [2]	EC50 [3]	Metabolic stability MLM % remaining in 30 min [4]
O=C(NO)c1ccc(/C=C/C(=O)N2CCC(CN[C@H]3C[C@@H]3c3ccccc3)CC2)cc1 [Example 114B, N-hydroxy-4-((E)-3-oxo-3-(4-((((1S,2R)-2-phenylcyclopropyl)amino)methyl)piperidin-1-yl)prop-1-en-1-yl)benzamide TFA Salt]	33 nM	73%	97 nM	43%
Nc1ccccc1NC(=O)c1ccc(CNC(=O)N2CCC(CNC3CC3c3ccc(F)cc3)CC2)cc1 (centres unmarked) [Example 158, N-(4-((2-aminophenyl)carbamoyl)benzyl)-4-(((2-(4-fluorophenyl)cyclopropyl)amino)methyl)piperidine-1-carboxamide TFA Salt]	> 10000 nM	50%	58 nM	< 5%
Nc1ccccc1NC(=O)c1ccc(CCN2CCC(CNC3CC3c3ccccc3)CC2)cc1 (centres unmarked) [Example 139, N-(2-aminophenyl)-4-(2-(4-(((2-phenylcyclopropyl)amino)methyl)piperidin-1-yl)ethyl)benzamide TFA Salt]	> 10000 nM			
O=C(NO)c1cc2c(s1)CCN(C(=O)CCCNC1CC1c1ccc(F)cc1)C2 (centres unmarked) [Example 105, 5-(4-((2-(4-fluorophenyl)cyclopropyl)amino)butanoyl)-N-hydroxy-4,5,6,7-tetrahydrothieno[3,2-c]pyridine-2-carboxamide TFA Salt]	18 nM	77%	13 nM	72%
O=C(NO)c1ccc(/C=C/C(=O)N2CCC(CNC3CC3c3ccccc3)CC2)cc1 (centres unmarked) [Example 114, (E)-N-hydroxy-4-(3-oxo-3-(4-(((2-phenylcyclopropyl)amino)methyl)piperidin-1-yl)prop-1-en-1-yl)benzamide TFA Salt]	68 nM	83%	44 nM	56%
Nc1ccccc1NC(=O)c1cc2c(s1)CCN(C(=O)CNC1CC1c1ccc(F)cc1)C2 (centres unmarked) [Example 151, N-(2-aminophenyl)-5-((2-(4-fluorophenyl)cyclopropyl)glycyl)-4,5,6,7-tetrahydrothieno[3,2-c]pyridine-2-carboxamide TFA Salt]	> 10000 nM	30%	345 nM	18%
Nc1ccccc1NC(=O)c1ccc(CCCn2cnc(CNC3CC3c3ccc(F)c(F)c3)c2)cc1 (centres unmarked) [Example 135, N-(2-aminophenyl)-4-(3-(4-(((2-(3,4-difluorophenyl)cyclopropyl)amino)methyl)-1H-imidazol-1-yl)propyl)benzamide TFA Salt]	> 10000 nM	2%	247 nM	8%
O=C(NO)c1ccc(CCS(=O)(=O)N2CCC(CNC3CC3c3ccccc3)CC2)cc1 (centres unmarked) [Example 88, N-hydroxy-4-(2-((4-(((2-phenylcyclopropyl)amino)methyl)piperidin-1-yl)sulfonyl)ethyl)benzamide TFA Salt]	77 nM			
O=C(NO)c1ccc(CCCN2CCC(CNC3CC3c3cnn(-c4ccccc4)c3)CC2)cc1 (centres unmarked) [Example 68, N-hydroxy-4-(3-(4-(((2-(1-phenyl-1H-pyrazol-4-yl)cyclopropyl)amino)methyl)piperidin-1-yl)propyl)benzamide TFA Salt]	104 nM			
Nc1ccccc1NC(=O)c1cnc(CCCN2CCC(CNC3CC3c3ccccc3)CC2)s1 (centres unmarked) [Example 154, N-(2-aminophenyl)-2-(3-(4-(((2-phenylcyclopropyl)amino)methyl)piperidin-1-yl)propyl)thiazole-5-carboxamide TFA Salt]	> 10000 nM			
Nc1ccccc1NC(=O)c1ccc(CCCN2CCC(CNC3CC3c3cnn(-c4ccccc4)c3)CC2)cc1 (centres unmarked) [Example 129, N-(2-aminophenyl)-4-(3-(4-(((2-(1-phenyl-1H-pyrazol-4-yl)cyclopropyl)amino)methyl)piperidin-1-yl)propyl)benzamide TFA Salt]	> 10000 nM			
